From ChEMBL document CHEMBL4725309, “Potent, non-covalent reversible BTK inhibitors with 8-amino-imidazo[1,5-a]pyrazine core featuring 3-position bicyclic ring substitutes” (Bioorg Med Chem Lett, 2020)

Assays:
[1] = target: T1, Tyrosine-protein kinase BTK (Homo sapiens, UniProt Q06187); test: Inhibition of BTK in human PBMC assessed as reduction in cell surface CD69 expression preincubated for 1 hr followed by stimulation with goat anti-human IgM F(ab')2 for 18 hrs by immunostaining analysis; assay type: tissue-based
[2] = target: T1, Tyrosine-protein kinase BTK; test: Inhibition of BTK in human whole blood assessed as reduction in cell surface CD69 expression preincubated for 1 hr followed by stimulation with anti-CD79b for 3 hrs by immunostaining analysis; assay type: tissue-based
[3] = target: T2, Cytoplasmic tyrosine-protein kinase BMX (Homo sapiens, UniProt P51813); test: Inhibition of BMX (unknown origin)
T2 sequence (P51813 whole entry): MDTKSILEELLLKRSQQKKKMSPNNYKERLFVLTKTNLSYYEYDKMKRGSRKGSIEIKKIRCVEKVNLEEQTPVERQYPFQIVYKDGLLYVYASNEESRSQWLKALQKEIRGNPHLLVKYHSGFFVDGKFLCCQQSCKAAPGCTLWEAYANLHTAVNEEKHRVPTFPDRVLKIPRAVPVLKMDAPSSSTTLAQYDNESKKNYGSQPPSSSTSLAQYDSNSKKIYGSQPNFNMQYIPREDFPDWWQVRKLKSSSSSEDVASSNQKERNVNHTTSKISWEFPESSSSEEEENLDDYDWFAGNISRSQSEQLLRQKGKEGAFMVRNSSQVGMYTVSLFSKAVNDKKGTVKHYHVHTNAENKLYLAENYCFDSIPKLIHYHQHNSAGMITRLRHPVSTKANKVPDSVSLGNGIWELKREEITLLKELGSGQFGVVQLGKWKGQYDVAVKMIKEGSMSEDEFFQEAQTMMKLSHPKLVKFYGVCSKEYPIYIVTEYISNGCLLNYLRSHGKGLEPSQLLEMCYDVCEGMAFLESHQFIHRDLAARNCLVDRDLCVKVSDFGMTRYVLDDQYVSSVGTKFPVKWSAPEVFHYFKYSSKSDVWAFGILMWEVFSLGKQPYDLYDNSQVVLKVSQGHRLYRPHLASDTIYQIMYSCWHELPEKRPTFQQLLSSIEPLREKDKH

[4] = target: Tyrosine-protein kinase CSK (Homo sapiens, UniProt P41240); test: Inhibition of CSK (unknown origin)
[5] = target: Tyrosine-protein kinase FRK (Homo sapiens, UniProt P42685); test: Inhibition of FRK (unknown origin)
[6] = target: Tyrosine-protein kinase Fyn (Homo sapiens, UniProt P06241); test: Inhibition of FYN (unknown origin)
[7] = target: Tyrosine-protein kinase Lck (Homo sapiens, UniProt P06239); test: Inhibition of LCK (unknown origin)
[8] = target: Tyrosine-protein kinase Lyn (Homo sapiens, UniProt P07948); test: Inhibition of LYNB (unknown origin)
[9] = target: Proto-oncogene tyrosine-protein kinase Src (Homo sapiens, UniProt P12931); test: Inhibition of SRC (unknown origin)
[10] = target: Tyrosine-protein kinase Srms (Homo sapiens, UniProt Q9H3Y6); test: Inhibition of SRMS (unknown origin)
[11] = target: T3, Tyrosine-protein kinase Tec (Homo sapiens, UniProt P42680); test: Inhibition of TEC (unknown origin)
T3 sequence (P42680 whole entry): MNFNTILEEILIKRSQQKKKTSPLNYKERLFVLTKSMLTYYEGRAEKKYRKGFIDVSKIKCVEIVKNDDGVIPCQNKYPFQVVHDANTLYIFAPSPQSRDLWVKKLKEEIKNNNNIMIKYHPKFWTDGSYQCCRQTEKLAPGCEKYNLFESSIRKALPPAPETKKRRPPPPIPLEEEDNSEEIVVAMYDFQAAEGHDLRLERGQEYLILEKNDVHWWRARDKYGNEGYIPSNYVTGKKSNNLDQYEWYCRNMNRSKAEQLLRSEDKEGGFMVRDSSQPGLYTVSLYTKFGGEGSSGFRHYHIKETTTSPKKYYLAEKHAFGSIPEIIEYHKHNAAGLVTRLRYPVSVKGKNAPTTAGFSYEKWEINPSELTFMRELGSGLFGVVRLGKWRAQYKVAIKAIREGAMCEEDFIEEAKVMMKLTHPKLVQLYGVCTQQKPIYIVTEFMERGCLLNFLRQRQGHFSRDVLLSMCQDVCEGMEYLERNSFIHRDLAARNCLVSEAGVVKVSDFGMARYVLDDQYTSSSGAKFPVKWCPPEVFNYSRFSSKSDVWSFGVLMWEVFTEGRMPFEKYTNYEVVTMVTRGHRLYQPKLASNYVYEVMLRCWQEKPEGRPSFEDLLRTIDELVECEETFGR

[12] = target: T4, Tyrosine-protein kinase TXK (Homo sapiens, UniProt P42681); test: Inhibition of TXK (unknown origin)
T4 sequence (P42681 whole entry): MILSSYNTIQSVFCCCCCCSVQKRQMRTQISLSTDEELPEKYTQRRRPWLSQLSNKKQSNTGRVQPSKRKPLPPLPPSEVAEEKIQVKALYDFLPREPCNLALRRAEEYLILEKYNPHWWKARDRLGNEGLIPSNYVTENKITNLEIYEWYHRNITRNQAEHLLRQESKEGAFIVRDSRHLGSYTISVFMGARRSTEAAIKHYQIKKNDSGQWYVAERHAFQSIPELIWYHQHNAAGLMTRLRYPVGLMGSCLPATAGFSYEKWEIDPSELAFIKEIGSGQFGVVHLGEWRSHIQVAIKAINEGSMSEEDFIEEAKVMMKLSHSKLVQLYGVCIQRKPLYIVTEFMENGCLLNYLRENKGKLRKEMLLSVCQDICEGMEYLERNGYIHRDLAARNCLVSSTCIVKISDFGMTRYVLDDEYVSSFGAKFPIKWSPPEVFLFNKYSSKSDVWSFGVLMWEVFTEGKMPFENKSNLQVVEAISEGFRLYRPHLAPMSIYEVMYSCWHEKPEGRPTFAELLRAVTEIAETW

Homo sapiens [13] = species on record: Homo sapiens; test: Selectivity index, ratio of IC50 for BLK (unknown origin) to IC50 for recombinant full length BTK (unknown origin) expressed in baculovirus infected Sf9 cells
Homo sapiens [14] = species on record: Homo sapiens; test: Selectivity index, ratio of IC50 for BMX (unknown origin) to IC50 for recombinant full length BTK (unknown origin) expressed in baculovirus infected Sf9 cells
Homo sapiens [15] = species on record: Homo sapiens; test: Selectivity index, ratio of IC50 for FRK (unknown origin) to IC50 for recombinant full length BTK (unknown origin) expressed in baculovirus infected Sf9 cells
Homo sapiens [16] = species on record: Homo sapiens; test: Selectivity index, ratio of IC50 for FYN (unknown origin) to IC50 for recombinant full length BTK (unknown origin) expressed in baculovirus infected Sf9 cells
Homo sapiens [17] = species on record: Homo sapiens; test: Selectivity index, ratio of IC50 for SRC (unknown origin) to IC50 for recombinant full length BTK (unknown origin) expressed in baculovirus infected Sf9 cells
[18] = AUC in Wistar Han rat at 2 mg/kg, iv; assay type: ADME, organism-based; design: dose 2 mg/kg; settings: in vivo
[19] = Half life in Wistar Han rat at 2 mg/kg, iv; assay type: ADME, organism-based; settings: in vivo
[20] = Cmax in Wistar Han rat at 5 mg/kg, po; assay type: ADME, organism-based; design: route oral, dose 5 mg/kg; settings: in vivo
[21] = Tmax in Wistar Han rat at 5 mg/kg, po; assay type: ADME, organism-based; settings: in vivo
[22] = Oral bioavailability in Wistar Han rat at 5 mg/kg; assay type: ADME, organism-based; settings: in vivo; for bioavailability: Wistar Han

T1 sequence (Q06187 whole entry): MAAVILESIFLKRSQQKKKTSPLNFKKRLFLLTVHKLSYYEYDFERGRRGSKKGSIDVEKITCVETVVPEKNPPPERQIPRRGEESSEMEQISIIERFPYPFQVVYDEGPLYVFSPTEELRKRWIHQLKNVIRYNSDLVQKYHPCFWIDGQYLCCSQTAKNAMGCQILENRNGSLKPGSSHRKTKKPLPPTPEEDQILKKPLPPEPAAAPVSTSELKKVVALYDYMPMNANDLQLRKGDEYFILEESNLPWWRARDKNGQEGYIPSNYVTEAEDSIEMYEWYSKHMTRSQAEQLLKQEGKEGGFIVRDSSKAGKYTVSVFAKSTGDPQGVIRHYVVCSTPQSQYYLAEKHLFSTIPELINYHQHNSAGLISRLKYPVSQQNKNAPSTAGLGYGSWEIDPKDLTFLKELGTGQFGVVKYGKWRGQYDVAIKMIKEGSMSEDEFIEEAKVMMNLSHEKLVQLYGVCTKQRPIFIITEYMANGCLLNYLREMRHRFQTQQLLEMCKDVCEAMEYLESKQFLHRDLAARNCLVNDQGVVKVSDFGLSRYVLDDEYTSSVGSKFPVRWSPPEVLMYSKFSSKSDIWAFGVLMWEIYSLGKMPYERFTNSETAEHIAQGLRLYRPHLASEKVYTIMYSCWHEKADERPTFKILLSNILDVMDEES
Chain of Tyrosine-protein kinase Srms (Q9H3Y6 whole entry): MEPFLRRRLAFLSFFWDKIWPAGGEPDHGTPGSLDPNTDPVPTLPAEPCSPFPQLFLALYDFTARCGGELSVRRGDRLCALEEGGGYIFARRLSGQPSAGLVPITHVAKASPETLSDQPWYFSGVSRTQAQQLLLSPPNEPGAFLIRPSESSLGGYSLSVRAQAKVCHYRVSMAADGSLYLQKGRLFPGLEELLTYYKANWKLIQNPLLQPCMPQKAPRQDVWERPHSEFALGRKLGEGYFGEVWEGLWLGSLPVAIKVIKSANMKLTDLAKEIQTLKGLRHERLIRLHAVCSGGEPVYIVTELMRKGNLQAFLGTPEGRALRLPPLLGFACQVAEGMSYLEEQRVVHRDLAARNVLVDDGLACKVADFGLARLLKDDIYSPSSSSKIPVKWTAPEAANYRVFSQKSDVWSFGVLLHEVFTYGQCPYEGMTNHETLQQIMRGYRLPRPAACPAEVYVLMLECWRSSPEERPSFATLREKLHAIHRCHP
Chain of Tyrosine-protein kinase CSK (P41240 whole entry): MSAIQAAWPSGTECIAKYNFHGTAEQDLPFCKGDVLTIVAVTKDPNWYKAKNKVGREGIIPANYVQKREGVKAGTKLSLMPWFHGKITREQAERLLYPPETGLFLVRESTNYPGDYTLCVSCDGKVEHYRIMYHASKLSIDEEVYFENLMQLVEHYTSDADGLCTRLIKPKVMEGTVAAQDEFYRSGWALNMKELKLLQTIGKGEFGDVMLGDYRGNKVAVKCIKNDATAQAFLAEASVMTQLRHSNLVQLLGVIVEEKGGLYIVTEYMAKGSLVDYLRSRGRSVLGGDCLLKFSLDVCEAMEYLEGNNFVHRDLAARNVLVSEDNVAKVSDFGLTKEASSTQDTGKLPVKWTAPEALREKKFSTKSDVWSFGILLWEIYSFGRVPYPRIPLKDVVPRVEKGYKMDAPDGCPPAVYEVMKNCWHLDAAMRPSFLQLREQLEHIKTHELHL
Chain of Tyrosine-protein kinase Fyn (P06241 whole entry): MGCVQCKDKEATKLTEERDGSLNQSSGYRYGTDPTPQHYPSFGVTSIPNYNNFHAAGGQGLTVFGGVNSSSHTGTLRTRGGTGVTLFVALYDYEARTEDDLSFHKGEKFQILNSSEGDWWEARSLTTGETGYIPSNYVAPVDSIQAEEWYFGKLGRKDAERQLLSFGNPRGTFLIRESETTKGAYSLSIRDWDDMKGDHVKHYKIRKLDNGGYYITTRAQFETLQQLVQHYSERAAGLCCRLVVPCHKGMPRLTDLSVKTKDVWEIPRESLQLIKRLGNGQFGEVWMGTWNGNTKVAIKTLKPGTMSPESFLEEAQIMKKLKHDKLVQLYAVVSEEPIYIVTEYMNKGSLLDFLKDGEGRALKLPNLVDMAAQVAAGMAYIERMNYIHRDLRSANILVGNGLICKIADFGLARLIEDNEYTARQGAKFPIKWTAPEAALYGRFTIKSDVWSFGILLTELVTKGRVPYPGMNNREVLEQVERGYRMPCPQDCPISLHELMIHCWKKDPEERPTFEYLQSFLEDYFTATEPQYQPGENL
Chain of Proto-oncogene tyrosine-protein kinase Src (P12931 2-536 limits assumed): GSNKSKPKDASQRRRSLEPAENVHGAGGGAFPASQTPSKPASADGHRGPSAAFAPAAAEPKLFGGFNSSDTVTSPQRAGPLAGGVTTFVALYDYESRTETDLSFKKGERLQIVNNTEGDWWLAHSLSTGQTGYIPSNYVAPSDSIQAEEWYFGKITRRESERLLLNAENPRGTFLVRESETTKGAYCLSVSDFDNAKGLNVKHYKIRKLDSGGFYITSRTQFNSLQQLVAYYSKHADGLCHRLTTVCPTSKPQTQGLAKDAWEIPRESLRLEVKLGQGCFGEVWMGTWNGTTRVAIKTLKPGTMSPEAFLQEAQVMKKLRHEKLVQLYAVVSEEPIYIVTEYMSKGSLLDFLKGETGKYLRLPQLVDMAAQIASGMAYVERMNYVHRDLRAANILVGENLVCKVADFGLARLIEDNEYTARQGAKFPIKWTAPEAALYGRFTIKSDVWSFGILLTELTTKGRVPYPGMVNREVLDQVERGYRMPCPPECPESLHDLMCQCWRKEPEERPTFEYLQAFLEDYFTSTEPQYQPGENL
Chain of Tyrosine-protein kinase Lyn (P07948 whole entry): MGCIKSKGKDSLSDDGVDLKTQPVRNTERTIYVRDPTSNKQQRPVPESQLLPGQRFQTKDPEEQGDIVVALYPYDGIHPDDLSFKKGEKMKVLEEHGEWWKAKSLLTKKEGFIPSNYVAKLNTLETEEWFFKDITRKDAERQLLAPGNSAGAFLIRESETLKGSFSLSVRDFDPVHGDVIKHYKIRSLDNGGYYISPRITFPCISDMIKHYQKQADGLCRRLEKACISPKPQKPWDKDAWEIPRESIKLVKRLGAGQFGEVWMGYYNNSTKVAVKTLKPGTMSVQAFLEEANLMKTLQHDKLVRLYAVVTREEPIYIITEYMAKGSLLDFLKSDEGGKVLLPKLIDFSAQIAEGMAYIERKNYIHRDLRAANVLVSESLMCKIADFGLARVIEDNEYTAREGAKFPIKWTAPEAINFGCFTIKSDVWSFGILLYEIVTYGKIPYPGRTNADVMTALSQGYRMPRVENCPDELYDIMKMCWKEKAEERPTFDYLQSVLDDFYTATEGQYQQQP
Chain of Tyrosine-protein kinase FRK (P42685 whole entry): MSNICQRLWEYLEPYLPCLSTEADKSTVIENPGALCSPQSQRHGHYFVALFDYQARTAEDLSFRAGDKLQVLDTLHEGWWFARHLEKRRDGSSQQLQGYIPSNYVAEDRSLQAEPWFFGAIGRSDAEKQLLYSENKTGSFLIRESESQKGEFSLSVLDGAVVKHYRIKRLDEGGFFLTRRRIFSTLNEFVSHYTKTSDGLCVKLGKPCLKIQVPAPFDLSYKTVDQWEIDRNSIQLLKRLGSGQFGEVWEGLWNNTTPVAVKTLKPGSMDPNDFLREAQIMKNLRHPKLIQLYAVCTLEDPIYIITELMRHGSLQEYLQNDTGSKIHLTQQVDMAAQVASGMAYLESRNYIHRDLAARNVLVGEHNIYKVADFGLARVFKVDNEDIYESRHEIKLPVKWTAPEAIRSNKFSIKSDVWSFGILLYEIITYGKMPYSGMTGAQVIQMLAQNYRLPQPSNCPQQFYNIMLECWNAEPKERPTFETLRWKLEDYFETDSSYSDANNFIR
Chain of Tyrosine-protein kinase Lck (P06239 whole entry): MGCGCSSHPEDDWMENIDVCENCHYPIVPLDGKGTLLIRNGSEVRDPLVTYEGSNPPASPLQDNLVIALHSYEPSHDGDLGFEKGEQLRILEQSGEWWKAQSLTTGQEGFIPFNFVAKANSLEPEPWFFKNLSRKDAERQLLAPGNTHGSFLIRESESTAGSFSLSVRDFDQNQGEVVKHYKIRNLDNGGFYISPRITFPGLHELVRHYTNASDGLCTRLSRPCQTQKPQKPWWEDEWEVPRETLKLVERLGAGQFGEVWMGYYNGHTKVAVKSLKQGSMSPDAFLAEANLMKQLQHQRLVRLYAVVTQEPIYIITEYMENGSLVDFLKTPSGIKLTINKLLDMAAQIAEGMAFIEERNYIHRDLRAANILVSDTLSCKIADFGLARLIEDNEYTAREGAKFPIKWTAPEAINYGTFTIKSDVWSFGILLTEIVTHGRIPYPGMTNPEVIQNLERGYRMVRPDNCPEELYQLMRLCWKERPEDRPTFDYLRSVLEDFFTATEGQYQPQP

SMILES	IC50 [1] [µM]	IC50 [2] [µM]	IC50 [3] [µM]	IC50 [4] [µM]	IC50 [5] [µM]	IC50 [6] [µM]	IC50 [7] [µM]	IC50 [8] [µM]	IC50 [9] [µM]	IC50 [10] [µM]	IC50 [11] [µM]	IC50 [12] [µM]	Ratio IC50 (Homo sapiens [13])	Ratio IC50 (Homo sapiens [14])	Ratio IC50 (Homo sapiens [15])	Ratio IC50 (Homo sapiens [16])	Ratio IC50 (Homo sapiens [17])	AUC [18] [µM·h]	half-life [19] [h]	Cmax [20] [nM]	other results
CC1(C)OC(=O)N2C[C@H](c3nc(-c4ccc(C(=O)Nc5cc(C(F)(F)F)ccn5)cc4)c4c(N)nccn34)CC[C@H]21	0.0028	0.058	0.0056	0.35	0.036	0.212	0.013	0.079	0.069	0.008	0.027	0.015	140	47	300	1700	570	2.3	3.6	1000	Tmax [21]: 2.5 h; F ([22]; 5 mg/kg): 160%
Nc1nccn2c([C@@H]3CC[C@H]4CCC(=O)N4C3)nc(-c3ccc(C(=O)Nc4cc(C(F)(F)F)ccn4)cc3)c12	0.0025	0.024	0.011	0.162	0.034	0.087	0.0059	0.02	0.033	0.0091	0.063	0.033	83	110	340	870	330	7.8	2.8	1300	Tmax [21]: 0.75 h; bioavailability [22]: 46%
Nc1nccn2c([C@@H]3CC[C@H]4COC(=O)N4C3)nc(-c3ccc(C(=O)Nc4cc(C(F)(F)F)ccn4)cc3)c12	0.0058	0.036	0.013	0.29	0.046	0.018	0.011	0.049	0.092	0.014	0.092	0.046	265	157	554	219	1110	5.1	5.1	340	Tmax [21]: 0.25 h; bioavailability [22]: 3.6%
